# Literature values in patent publication US7041675B2, “Heterocyclic compounds and their use as PARP inhibitors” (Abbott GmbH & Co. KG, priority 2000, dated 2006).
# Test system: model of circulatory shock
# Settings: S. Cuzzocrea et al., Br. J. Pharmacol. 1997
smiles,measurement,value
NC(=O)c1cccc(N)c1 [3-aminobenzamide],protective effects in a model of circulatory shock,protective effects
